From ChEMBL document CHEMBL1140623, “CC chemokine receptor-3 (CCR3) antagonists: improving the selectivity of DPC168 by reducing central ring lipophilicity” (Bioorg Med Chem Lett, 2007)

How the values were obtained:
in vivo [1] = conditions: BALB/c, mouse
in vitro [2] = conditions: human, Caco-2
in vivo [3] = conditions: cynomolgus monkey
in vivo [4] = conditions: BALB/c, mouse; remark: listed apart in the source
in vivo [5] = conditions: cynomolgus monkey; remark: listed apart in the source
in vitro [6] = conditions: human, liver microsomes
in vivo [7] = conditions: BALB/c, mouse; remark: listed apart in the source
in vivo [8] = conditions: chimpanzee
in vivo [9] = conditions: cynomolgus monkey; remark: listed apart in the source
in vivo [10] = conditions: chimpanzee; remark: listed apart in the source
in vivo [11] = conditions: chimpanzee; remark: listed apart in the source

- bioavailability (in vivo [1]): 25%
- Papp (in vitro [2]): 2.8 ×10⁻⁶ cm/s
- bioavailability (in vivo [3]): 18%
- clearance (in vivo [4]): 41.7 mL/min/kg
- clearance (in vivo [5]): 14.5 mL/min/kg
- CLint scaled (in vitro [6]): 16 mL/min/kg
- half-life (in vivo [7]): 1.2 h
- bioavailability (in vivo [8]): 7%
- half-life (in vivo [9]): 5.5 h
- clearance (in vivo [10]): 21.7 mL/min/kg
- half-life (in vivo [11]): 4.5 h
Compound: CC(=O)c1sc(NC(=O)N[C@@H]2CN(C(C)=O)CC[C@H]2CN2CCC[C@@H](Cc3ccc(F)cc3)C2)nc1C
